≈ marks a conversion by molar mass, not a printed value. Read-outs that look alike come from different tables or passages of the source.
Tests used:
[1] = tested on: Mycobacterium tuberculosis H37Rv; experiment: microbe, parasite or virus in culture; format: cell-based; conditions: for activity at 1 µM / activity at 50 µM / activity at 100 µM: 120 h
[2] = tested on: M. tuberculosis H37RvMA pMSP12:GFP; experiment: microbe, parasite or virus in culture; format: cell-based; conditions: Mycobacterium tuberculosis
[3] = tested on: M. tuberculosis H37Rv:pCHERRY3; experiment: microbe, parasite or virus in culture; format: cell-based; conditions: Mycobacterium tuberculosis
BSA = biological target: T1, BSA (Bos taurus, UniProt P02769); experiment: Bovine serum albumin binding assay (fluorescence quenching); conditions: BSA 1.00 × 10^−5 mol L^−1, 22 °C, ex 295 nm
T1 construct: purchased Sigma Aldrich (Kempton Park, South Africa)
Text: The mechanism of the fluorescent quenching of CM14 and CM15 to BSA is described using the Stern-Volmer equation:F0/F = 1 + ksv[Q] = 1 + kq τ0[Q] where F0 and F are the fluorescence intensities before and after the addition of the quencher, respectively; ksv is the dynamic quenching constant; kq is the quenching rate constant; [Q] is the concentration of quencher; τ0 is the average lifetime of the molecule without quencher and its value is considered to be 10^−8 s. The plots show a good linear relationship within the investigated concentrations of CM14 and CM15.
The interaction between coumarin derivatives (CM14 and CM15) and BSA were measured by fluorescence spectroscopy. BSA (≥98%) was obtained from Sigma Aldrich (Kempton Park, South Africa) and dissolved in a Tris–HCl (0.10 mol L^−1, pH = 7.4) buffer to form the BSA solution with a concentration of 1.00 × 10^−5 mol L^−1. A Tris–HCl buffer (0.10 mol L^−1, pH = 7.4) containing 0.10 mol L^−1 NaCl was selected to keep the pH value constant and to maintain the ionic strength of the solution. CM14 and CM15 stock solution (1.00 × 10^−3 mol L^−1) was prepared in MeOH. […] Fluorescence spectra were recorded on a Synergy Mx fluorescence plate reader (BioTek, Winooski, VT, USA). […] Fluorescence spectra were measured in the range of 315–500 nm at the excitation wavelength of 295 nm. […]

[4] = Chinese hamster ovary cell cytotoxicity MTT assay; conditions: for CC50 at 44 h: CHO cells
Procedure: Cytotoxicity was evaluated on CHO cells utilizing a standard 3-[4,5-dimethylthiazol-2-yl]-2,5-diphenyl tetrazolium bromide (MTT) assay. The MTT is a yellow tetrazolium salt that is reduced to purple formazan in the presence of living cells. This reduction reaction was used to measure growth and chemosensitivity. The test samples were tested in triplicate on one occasion. Cells were seeded in microtiter plates at a density of 10^5 cells/mL and incubated for 24 h prior to exposure. The test samples were prepared to a 20 mg/mL stock solution in 10% methanol or 10% DMSO and were tested as a suspension if not properly dissolved. Test compounds were stored at −20 °C until use, and administered in volumes of 100 µL to the plated cells. Emetine was used as the reference drug in all experiments. […] Plates were developed after 44 h of exposure to the drug by the addition of a solution of MTT. After four hours, further incubation at 37 °C the supernatant was removed from the cells via suction and DMSO was added to each well to dissolve the reduced dye crystals. […] The amount of formazan produced in wells containing untreated cells only and growth medium only represent 100% survival and 0% survival respectively, and the amount in each treatment well was converted to a survival percentage relative to these two extremes. The IC50 values were obtained from full dose-response curves, using a non-linear dose-response curve fitting analysis via GraphPad Prism v.4 software.

[5] = SH-SY5Y cytotoxicity MTT assay; format: cell-based, human; conditions: human, SH-SY5Y neuroblastoma cells, MTT, read-out: CC 50% SH-SY5Y (range where 50% cell toxicity will be observed)
Procedure: (§1) The human neuroblastoma cell line SH-SY5Y was generously donated by our collaborator at the Division of Molecular Biology and Human Biology, Stellenbosch University, Tygerberg, Cape Town. Cells were cultured in monolayer using Dulbecco Modified Eagles Medium (DMEM, Gibco, Life Technologies Ltd. Carlsbad, CA, USA) supplemented with 10% fetal bovine serum (FBS, Gibco, Life Technologies Ltd.) and 1% 100 U/mL penicillin and 100 μg/mL streptomycin (Lonza Group Ltd., Basel, Switzerland). Cells were grown at 37 °C, in a humidified atmosphere at 5% CO2. Media were replaced every two to three days and cells were sub-cultured by splitting with trypsin (Lonza Group Ltd.).
(§2) The standard MTT assay which measures cell metabolic activity was used to determine cytotoxicity of CM14, CM15 and CM9 as described by Mosmann. Briefly, SH-SY5Y cells were plated in flat bottom 96 well plates in growth medium as stated in Section 3.7.1 at a density of 7500 cells/well. Cells were allowed to adhere to the plate surface for 24 h and used media were replaced with fresh media containing test compounds at 10 µM, 50 µM and 100 µM. Vehicle control cells were treated with DMSO (solvent for dissolving test compounds) at a concentration similar to the amount contained in the highest concentration of test compounds. After 48 h, 10 µL of MTT solution (5 mg/mL) was added to each well and incubated for 4 h and the purple formazan formed was solubilized with 100 µL DMSO and plates were read spectrophotometrically to determine absorbance at 570 nm using a BMG Labtech POLARStar Omega multimodal plate reader.

SH-SY5Y cells [6] = experiment: SH-SY5Y cytotoxicity MTT assay; format: cell-based, human; conditions: 48 h
Procedure: as §1, §2

electric eel AChE = tested on: electric eel AChE; design: method as in Joubert et al., 2017 [23]; conditions: ref Joubert et al., 2017 [23]; cited from earlier work
[7] = biological target: equine butyrylcholinesterase (BuChE); design: method as in Joubert et al., 2017 [23]; conditions: ref Joubert et al., 2017 [23]; cited from earlier work
SH-SY5Y cells [8] = experiment: MPP+-induced cytotoxicity in SH-SY5Y cells (neuroprotection); conditions: 1000 μM MPP+ for 48 h; for cell survival restored after MPP+ exposure: 1 µM compound, untreated control 100%
M. tuberculosis = conditions: cited from earlier work
[9] = 1 µM compound, day 5, read-out: % M. tuberculosis Growth, Day 5
[10] = 50 µM compound, day 5, read-out: % M. tuberculosis Growth, Day 5
[11] = 100 µM compound, day 5, read-out: % M. tuberculosis Growth, Day 5
[12] = read-out: % M. tuberculosis Growth, Day 5

T1 sequence (P02769 25-607): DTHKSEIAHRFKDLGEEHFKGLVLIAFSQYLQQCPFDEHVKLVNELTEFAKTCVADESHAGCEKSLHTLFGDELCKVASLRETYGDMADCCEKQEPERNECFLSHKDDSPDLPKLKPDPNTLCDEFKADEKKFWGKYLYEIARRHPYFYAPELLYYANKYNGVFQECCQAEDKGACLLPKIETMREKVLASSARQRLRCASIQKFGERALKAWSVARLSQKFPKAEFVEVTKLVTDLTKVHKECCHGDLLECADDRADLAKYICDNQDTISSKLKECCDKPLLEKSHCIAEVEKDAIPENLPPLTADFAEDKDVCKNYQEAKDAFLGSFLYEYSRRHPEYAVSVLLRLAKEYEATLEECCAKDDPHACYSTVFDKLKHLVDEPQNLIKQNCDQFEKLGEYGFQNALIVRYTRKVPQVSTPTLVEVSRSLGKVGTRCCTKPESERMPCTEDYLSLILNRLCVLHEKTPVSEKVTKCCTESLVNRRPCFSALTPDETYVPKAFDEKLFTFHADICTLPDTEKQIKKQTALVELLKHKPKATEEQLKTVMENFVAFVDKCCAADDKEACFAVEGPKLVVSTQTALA

With `Cc1c(Cl)c(=O)oc2cc(OCCN3CCN(Cc4ccc(Br)cc4)CC3)ccc12` [CM13] the activity at 1 µM [1, 9] was 97%, the activity at 50 µM [1, 10] was 42.5% and the activity at 100 µM [1, 11] was 32.1%.
Work on `Cc1c(C#N)c(=O)oc2cc(OCCN3CCN(Cc4ccc(Br)cc4)CC3)ccc12` [CM14] yielded an activity at 1 µM [1, 9] of 99.5%, an activity at 50 µM [1, 10] of 4.4% and an activity at 100 µM [1, 11] of 4.44%. The MIC90 [2] was 16.7 µM (≈ 8.06 µg/mL), the MIC99 [2] was 28 µM (≈ 13.5 µg/mL) and the MIC90 [3] was 45.2 µM (≈ 21.8 µg/mL). The MIC99 [3] was 54.5 µM (≈ 26.3 µg/mL), the “ksv (dynamic quenching constant)” value (BSA) was 380000 mol/L and the CC50 at 44 h [4] was 41.2 µM. The CC50 at 48 h [5] was 50 to 100 µM, the “effect on viability of SH-SY5Y cells” value (SH-SY5Y cells [6]; 10 µM) was “did not significantly affect” and the “effect on viability of SH-SY5Y cells” value (SH-SY5Y cells [6]; 50 µM and 100 µM) was “significantly (p < 0.001) affected”. For the same compound, the IC50 (electric eel AChE) was 38.5 µM, the IC50 [7] was 13.3 µM and the “cell survival restored after MPP+ exposure” value (SH-SY5Y cells [8]) was 101.2 ± 6.00%.
`O=c1cc(C(F)(F)F)c2ccc(OCCN3CCN(Cc4ccc(Br)cc4)CC3)cc2o1` [CM15] showed an activity at 1 µM [1, 9] of 107%, an activity at 50 µM [1, 10] of 6.68% and an activity at 100 µM [1, 11] of 4.88%. For the same compound, the MIC90 [2] was 3.2 µM (≈ 1.64 µg/mL), the MIC99 [2] was 8.31 µM (≈ 4.25 µg/mL) and the MIC90 [3] was 43.8 µM (≈ 22.4 µg/mL). For the same compound, the MIC99 [3] was 57.2 µM (≈ 29.2 µg/mL), the “ksv (dynamic quenching constant)” value (BSA) was 488000 mol/L and the CC50 at 44 h [4] was 26.3 µM. The CC50 at 48 h [5] was 10 to 50 µM, the “effect on viability of SH-SY5Y cells” value (SH-SY5Y cells [6]; 10 µM) was “did not significantly affect” and the “effect on viability of SH-SY5Y cells” value (SH-SY5Y cells [6]; 50 µM and 100 µM) was “significantly (p < 0.001) affected”. For the same compound, the IC50 (electric eel AChE) was greater than 100 µM, the IC50 [7] was greater than 100 µM and the “cell survival restored after MPP+ exposure” value (SH-SY5Y cells [8]) was 81.05 ± 6.83%.
`O=c1ccc2ccc(OCc3ccccc3)cc2o1` [CM16] showed an activity at 1 µM [1, 12] of 97.5%, an activity at 50 µM [1, 12] of 72.7% and an activity at 100 µM [1, 12] of 50.7%.
Work on `Cc1cc(=O)oc2cc(OCc3ccccc3)ccc12` [CM17] yielded an activity at 1 µM [1, 12] of 97.6%, an activity at 50 µM [1, 12] of 28.6% and an activity at 100 µM [1, 12] of 19.8%.
`Cc1c(Cl)c(=O)oc2cc(OCc3ccccc3)ccc12` [CM18] showed an activity at 1 µM [1, 9] of 97.3%, an activity at 50 µM [1, 10] of 87.9% and an activity at 100 µM [1, 11] of 75.5%.
In the case of `Cc1c(C#N)c(=O)oc2cc(OCc3ccccc3)ccc12` [CM19], the activity at 1 µM [1, 9] is reported as 98.3%, the activity at 50 µM [1, 10] is reported as 66.9% and the activity at 100 µM [1, 11] is reported as 55.4%.
In the case of `COc1ccc2cc(-n3cc(COc4nc(-c5ccccn5)sc4C(N)=O)nn3)c(=O)oc2c1` [Compound 3], the MIC (M. tuberculosis) is listed as 6.5 µM (≈ 3.1 µg/mL).
For `CC[C@H]1CN2CCc3cc(OC)c(OC)cc3[C@@H]2C[C@@H]1C[C@H]1NCCc2cc(OC)c(OC)cc21` [Emetine, reference compound], the CC50 ([4]; Chinese hamster) was 60 nM.
In the case of `C[n+]1ccc(-c2ccccc2)cc1` [MPP^+, 1-methyl-4-phenyl pyridinium, reference compound], the “cell viability after MPP+ without test compound” value (SH-SY5Y cells [8]) is reported as 51.42 ± 3.18%.
For `CO[C@H]1/C=C/O[C@@]2(C)Oc3c(C)c(O)c4c(O)c(c(/C=N/N5CCN(C)CC5)c(O)c4c3C2=O)NC(=O)/C(C)=C\C=C\[C@H](C)[C@H](O)[C@@H](C)[C@@H](O)[C@@H](C)[C@H](OC(C)=O)[C@@H]1C` [RIF, rifampicin, reference compound], the inhibition at 6 µM ([1]; read-out: inhibition of bacterial growth) was 100% and the MIC [2] was 0.0274 µM (≈ 0.0225 µg/mL).

From paper PMC6151660 (Molecules : A Journal of Synthetic Chemistry and Natural …, 2017)
